From patent US20140179664A1, “Heterocyclyl Pyrimidine Analogues As JAK Inhibitors” (Cellzome Limited, priority 2011, published 2014)

Key:
Format in all cases: binding
JAK1 = target: T1, JAK1 (Homo sapiens, UniProt P23458); experiment: Kinobeads assay, JAK1; details: mixed Molt4/Ramos lysate, read-out: Inhibition values (IC50) JAK1
T1 construct: endogenous in cells; host or cells: Molt4 (ATCC CRL-1582) and Ramos (ATCC CRL-1596), mixed lysate 1:2
Procedure: After the incubation time the beads with captured proteins were separated from the lysate. Bound proteins were then eluted and the presence of JAK1, JAK2, JAK3 and TYK2 was detected and quantified using specific antibodies in a dot blot procedure and the Odyssey infrared detection system. Dose response curves for individual kinases were generated and IC50 values calculated.
(§1) 5×DP buffer: 250 mM Tris-HCl pH 7.4, 25% Glycerol, 7.5 mM MgCl2, 750 mM NaCl, 5 mM Na3VO4; filter the 5×DP buffer through a 0.22 μm filter and store in aliquots at −80° C. The 5×DP buffer is diluted with H2O to 1×DP buffer containing 1 mM DTT and 25 mM NaF.
Stock solutions of test compounds were prepared in DMSO. […] Starting with this solution a 1:3 dilution series (9 steps) was prepared. For control experiments (no test compound) a buffer containing 2% DMSO was used.
Cells were homogenized in a Potter S homogenizer in lysis buffer: 50 mM Tris-HCl, 0.8% NP40, 5% glycerol, 150 mM NaCl, 1.5 mM MgCl2, 25 mM NaF, 1 mM sodium vanadate, 1 mM DTT, pH 7.5. […] The material was dounced 10 times using a mechanized POTTER S, transferred to 50 mL falcon tubes, incubated for 30 minutes on ice and spun down for 10 minutes at 20,000 g at 4° C. (10,000 rpm in Sorvall SLA600, precooled). […] (33.500 rpm in Ti50.2, precooled). The supernatant was transferred again to a fresh 50 mL falcon tube, the protein concentration was determined by a Bradford assay (BioRad) and samples containing 50 mg of protein per aliquot were prepared. The samples were immediately used for experiments or frozen in liquid nitrogen and stored frozen at −80° C.
Cell lysate (approximately 50 mg protein per plate) was thawed in a water bath at room temperature and then stored on ice. […] The diluted cell lysate was stored on ice. Mixed Molt4/Ramos lysate was prepared by combining one volume of Molt4 lysate and two volumes of Ramos lysate (ratio 1:2).
Plates were sealed and incubated for 3 hours in a cold room on a plate shaker (Heidolph tiramax 1000) at 750 rpm. Afterwards the plate was washed 3 times with 230 μL washing buffer (1×DP 0.4% NP40). […] The eluate was frozen quickly at −80° C. and stored at −20° C.
Afterwards the membrane was washed twice for 10 minutes with PBS buffer containing 0.2% Tween 20 at room temperature. […] Afterwards the membrane was washed twice for 10 minutes each with 1×PBS buffer containing 0.2% Tween 20 at room temperature. Then the membrane was rinsed once with PBS buffer to remove residual Tween 20. The membrane was kept in PBS buffer at 4° C. and then scanned with the Odyssey instrument. Fluorescence signals were recorded and analysed according to the instructions of the manufacturer.

JAK2 = target: T2, JAK2 (Homo sapiens, UniProt O60674); experiment: Kinobeads assay, JAK2; details: mixed Molt4/Ramos lysate, read-out: Inhibition values (IC50) JAK2
T2 construct: endogenous in cells; host or cells: Molt4 (ATCC CRL-1582) and Ramos (ATCC CRL-1596), mixed lysate 1:2
T2 sequence (O60674 whole entry): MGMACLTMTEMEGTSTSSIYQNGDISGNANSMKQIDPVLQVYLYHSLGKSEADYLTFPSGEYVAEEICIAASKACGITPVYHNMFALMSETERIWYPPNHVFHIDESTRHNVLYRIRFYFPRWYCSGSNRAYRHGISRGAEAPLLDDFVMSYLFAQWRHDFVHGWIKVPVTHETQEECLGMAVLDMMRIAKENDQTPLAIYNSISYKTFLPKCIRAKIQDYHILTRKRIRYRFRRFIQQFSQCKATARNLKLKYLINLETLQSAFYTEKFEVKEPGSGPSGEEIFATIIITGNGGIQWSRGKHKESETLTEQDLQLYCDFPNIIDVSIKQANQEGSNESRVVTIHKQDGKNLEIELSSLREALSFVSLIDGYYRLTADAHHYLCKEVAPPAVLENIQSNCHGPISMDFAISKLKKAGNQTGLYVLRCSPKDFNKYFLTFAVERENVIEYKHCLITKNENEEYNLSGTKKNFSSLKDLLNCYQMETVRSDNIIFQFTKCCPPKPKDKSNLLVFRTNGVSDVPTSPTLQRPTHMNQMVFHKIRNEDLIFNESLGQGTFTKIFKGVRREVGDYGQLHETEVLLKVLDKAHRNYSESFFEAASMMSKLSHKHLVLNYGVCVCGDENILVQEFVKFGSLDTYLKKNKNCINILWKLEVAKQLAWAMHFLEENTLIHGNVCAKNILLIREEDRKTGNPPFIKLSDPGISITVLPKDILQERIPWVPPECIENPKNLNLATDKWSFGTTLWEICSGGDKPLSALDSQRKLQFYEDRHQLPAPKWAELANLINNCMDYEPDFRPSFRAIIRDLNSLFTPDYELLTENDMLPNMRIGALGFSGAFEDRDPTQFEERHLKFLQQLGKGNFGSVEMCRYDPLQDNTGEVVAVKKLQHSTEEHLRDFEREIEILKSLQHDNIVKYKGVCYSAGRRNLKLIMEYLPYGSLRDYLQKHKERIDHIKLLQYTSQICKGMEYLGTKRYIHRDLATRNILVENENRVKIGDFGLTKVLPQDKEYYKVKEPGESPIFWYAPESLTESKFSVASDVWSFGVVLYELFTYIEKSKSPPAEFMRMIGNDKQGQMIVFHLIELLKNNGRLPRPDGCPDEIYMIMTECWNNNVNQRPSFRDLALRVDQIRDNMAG
Procedure: (§2) The compounds of the present invention as described in the previous examples were tested in a Kinobeads™ assay as described for ZAP-70 (WO-A 2007/137867). Briefly, test compounds (at various concentrations) and the affinity matrix with the immobilized aminopyrido-pyrimidine ligand 24 were added to cell lysate aliquots and allowed to bind to the proteins in the lysate sample. After the incubation time the beads with captured proteins were separated from the lysate. Bound proteins were then eluted and the presence of JAK1, JAK2, JAK3 and TYK2 was detected and quantified using specific antibodies in a dot blot procedure and the Odyssey infrared detection system. Dose response curves for individual kinases were generated and IC50 values calculated. Kinobeads™ assays for ZAP-70 (WO-A 2007/137867) and for kinase selectivity profiling (WO-A 2006/134056) have been previously described.
(§3) The affinity matrix was washed two times with 15 mL of lx DP buffer containing 0.2% NP40 (IGEPAL® CA-630, Sigma, #13021) and then resuspended in 1×DP buffer containing 0.2% NP40 (3% beads slurry).
as §1
(§4) Stock solutions of test compounds were prepared in DMSO. In a 96 well plate […] solution of diluted test compounds at 5 mM in DMSO were prepared. Starting with this solution a 1:3 dilution series (9 steps) was prepared. For control experiments (no test compound) a buffer containing 2% DMSO was used.
(§5) Molt4 cells (ATCC catalogue number CRL-1582) and Ramos cells (ATCC catalogue number CRL-1596) were grown in 1 L Spinner flasks (Integra Biosciences, #182101) in suspension in RPMI 1640 medium (Invitrogen, #21875-034) supplemented with 10% Fetal Bovine Serum (Invitrogen) at a density between 0.15×10^6 and 1.2×10^6 cells/mL. Cells were harvested by centrifugation, washed once with 1×PBS buffer (Invitrogen, #14190-094) and cell pellets were frozen in liquid nitrogen and subsequently stored at −80° C. Cells were homogenized in a Potter S homogenizer in lysis buffer: 50 mM Tris-HCl, 0.8% NP40, 5% glycerol, 150 mM NaCl, 1.5 mM MgCl2, 25 mM NaF, 1 mM sodium vanadate, 1 mM DTT, pH 7.5. One complete EDTA-free tablet (protease inhibitor cocktail, Roche Diagnostics, 1873580) per 25 mL buffer was added. The material was dounced 10 times using a mechanized POTTER S, transferred to 50 mL falcon tubes, incubated for 30 minutes on ice and spun down for 10 minutes at 20,000 g at 4° C. (10,000 rpm in Sorvall SLA600, precooled). The supernatant was transferred to an ultracentrifuge (UZ)-polycarbonate tube (Beckmann, 355654) and spun for 1 hour at 100.000 g at 4° C. (33.500 rpm in Ti50.2, precooled). The supernatant was transferred again to a fresh 50 mL falcon tube, the protein concentration was determined by a Bradford assay (BioRad) and samples containing 50 mg of protein per aliquot were prepared. The samples were immediately used for experiments or frozen in liquid nitrogen and stored frozen at −80° C.
(§6) Cell lysate (approximately 50 mg protein per plate) was thawed in a water bath at room temperature and then stored on ice. To the thawed cell lysate 1×DP 0.8% NP40 buffer containing protease inhibitors (1 tablet for 25 mL buffer; EDTA-free protease inhibitor cocktail; Roche Diagnostics 1873580) was added in order to reach a final protein concentration of 10 mg/mL total protein. The diluted cell lysate was stored on ice. Mixed Molt4/Ramos lysate was prepared by combining one volume of Molt4 lysate and two volumes of Ramos lysate (ratio 1:2).
(§7) To a 96 well filter plate (Multiscreen HTS, BV Filter Plates, Millipore #MSBVN1250) were added per well: 100 μL affinity matrix (3% beads slurry), […], of compound solution, and 50 μL of diluted lysate. […]

TYK2 = target: T3, TYK2 (Homo sapiens, UniProt P29597); experiment: Kinobeads assay, TYK2; details: mixed Molt4/Ramos lysate, read-out: Inhibition values (IC50) TYK2
T3 construct: endogenous in cells; host or cells: Molt4 (ATCC CRL-1582) and Ramos (ATCC CRL-1596), mixed lysate 1:2
T3 sequence (P29597 whole entry): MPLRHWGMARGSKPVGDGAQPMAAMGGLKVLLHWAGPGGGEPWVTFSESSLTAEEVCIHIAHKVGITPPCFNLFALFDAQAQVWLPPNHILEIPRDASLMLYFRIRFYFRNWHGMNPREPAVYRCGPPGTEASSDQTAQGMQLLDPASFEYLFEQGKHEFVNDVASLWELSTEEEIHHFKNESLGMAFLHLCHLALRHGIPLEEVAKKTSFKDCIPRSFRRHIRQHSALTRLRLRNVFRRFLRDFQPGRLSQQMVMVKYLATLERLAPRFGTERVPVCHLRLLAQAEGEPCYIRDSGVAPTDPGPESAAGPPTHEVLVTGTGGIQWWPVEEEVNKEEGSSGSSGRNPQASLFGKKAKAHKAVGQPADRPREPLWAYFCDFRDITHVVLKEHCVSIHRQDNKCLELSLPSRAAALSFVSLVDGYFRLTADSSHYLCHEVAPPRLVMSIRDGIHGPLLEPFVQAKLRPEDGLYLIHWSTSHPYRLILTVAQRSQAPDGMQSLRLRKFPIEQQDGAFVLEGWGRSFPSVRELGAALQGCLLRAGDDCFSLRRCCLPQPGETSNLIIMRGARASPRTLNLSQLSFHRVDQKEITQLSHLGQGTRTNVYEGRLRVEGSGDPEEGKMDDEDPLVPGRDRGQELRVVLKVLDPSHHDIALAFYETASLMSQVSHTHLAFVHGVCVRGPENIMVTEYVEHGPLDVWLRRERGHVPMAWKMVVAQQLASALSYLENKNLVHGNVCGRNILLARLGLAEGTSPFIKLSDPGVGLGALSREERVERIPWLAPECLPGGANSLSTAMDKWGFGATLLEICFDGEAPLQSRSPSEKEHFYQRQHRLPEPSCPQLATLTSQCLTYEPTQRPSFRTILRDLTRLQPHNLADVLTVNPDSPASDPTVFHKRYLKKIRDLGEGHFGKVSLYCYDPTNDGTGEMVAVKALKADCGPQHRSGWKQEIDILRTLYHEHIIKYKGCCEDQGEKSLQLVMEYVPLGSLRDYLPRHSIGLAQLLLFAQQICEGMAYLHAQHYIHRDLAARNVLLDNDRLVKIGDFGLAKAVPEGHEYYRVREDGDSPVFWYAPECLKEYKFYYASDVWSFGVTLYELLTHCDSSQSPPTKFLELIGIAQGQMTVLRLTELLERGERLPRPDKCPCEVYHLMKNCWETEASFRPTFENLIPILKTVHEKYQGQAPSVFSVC
Procedure: as §2, §3, §1, §4, §5, §6, §7

T1 sequence (P23458 whole entry): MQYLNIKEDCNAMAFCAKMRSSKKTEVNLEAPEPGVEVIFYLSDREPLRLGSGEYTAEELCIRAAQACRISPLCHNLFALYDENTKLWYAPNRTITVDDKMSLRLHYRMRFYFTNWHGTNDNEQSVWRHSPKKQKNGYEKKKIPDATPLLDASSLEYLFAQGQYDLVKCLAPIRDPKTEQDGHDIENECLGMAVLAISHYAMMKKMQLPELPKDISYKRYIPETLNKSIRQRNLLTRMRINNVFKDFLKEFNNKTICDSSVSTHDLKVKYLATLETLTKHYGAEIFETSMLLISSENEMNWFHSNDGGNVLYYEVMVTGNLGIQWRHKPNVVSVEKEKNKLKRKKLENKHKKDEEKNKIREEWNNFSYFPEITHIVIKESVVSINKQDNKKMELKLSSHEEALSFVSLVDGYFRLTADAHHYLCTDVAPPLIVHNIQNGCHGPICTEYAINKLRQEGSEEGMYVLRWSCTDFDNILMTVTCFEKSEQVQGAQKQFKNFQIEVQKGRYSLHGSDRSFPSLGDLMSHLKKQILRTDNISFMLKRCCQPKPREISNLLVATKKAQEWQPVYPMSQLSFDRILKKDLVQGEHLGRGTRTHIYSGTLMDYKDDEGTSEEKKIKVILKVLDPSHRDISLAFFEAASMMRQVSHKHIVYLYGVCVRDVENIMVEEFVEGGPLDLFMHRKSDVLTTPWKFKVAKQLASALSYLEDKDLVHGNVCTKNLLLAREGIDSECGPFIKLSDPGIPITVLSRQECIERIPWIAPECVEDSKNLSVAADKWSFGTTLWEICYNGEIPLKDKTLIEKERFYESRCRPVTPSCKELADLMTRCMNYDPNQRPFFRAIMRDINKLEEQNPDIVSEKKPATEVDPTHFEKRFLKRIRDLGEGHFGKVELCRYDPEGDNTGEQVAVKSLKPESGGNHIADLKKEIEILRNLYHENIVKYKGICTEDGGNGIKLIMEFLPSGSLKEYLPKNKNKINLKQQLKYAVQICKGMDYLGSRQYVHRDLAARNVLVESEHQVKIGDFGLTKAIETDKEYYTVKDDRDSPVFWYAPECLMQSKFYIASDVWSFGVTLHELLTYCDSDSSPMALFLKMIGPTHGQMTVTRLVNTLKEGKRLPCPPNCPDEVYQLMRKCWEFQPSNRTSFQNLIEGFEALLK

With `Cn1cc(-c2cccc([C@@H](CO)Nc3nc(Nc4cnn(CCO)c4)ncc3Cl)c2)cn1` [Compound 151] the IC50 (JAK1) was 1000 to 10000 nM, the IC50 (JAK2) was no less than 10 µM and the IC50 (TYK2) was no less than 10000 nM.
`Cn1cc(-c2cc(F)cc([C@@H](CO)Nc3nc(Nc4cnn(CCO)c4)ncc3Cl)c2)cn1` [Compound 152] showed an IC50 (JAK1) of 100 to 1000 nM, an IC50 (JAK2) of 1 to 10 µM and an IC50 (TYK2) of 1000 to 10000 nM.
`Cn1cc(-c2cc(F)cc([C@@H](CO)Nc3nc(Nc4cnn(CCO)c4)ncc3F)c2)cn1` [Compound 153] gave an IC50 (JAK1) of 1000 to 10000 nM, an IC50 (JAK2) of no less than 10 µM and an IC50 (TYK2) of no less than 10000 nM.
With `CNC(=O)Cn1cc(Nc2ncc(Cl)c(N[C@H](CO)c3cccc(-c4cnn(C)c4)c3)n2)cn1` [Compound 154] the IC50 (JAK1) was 1000 to 10000 nM, the IC50 (JAK2) was 1 to 10 µM and the IC50 (TYK2) was 100 to 1000 nM.
In the case of `CNC(=O)Cn1cc(Nc2ncc(F)c(N[C@H](CO)c3cccc(-c4cnn(C)c4)c3)n2)cn1` [Compound 155], the IC50 (JAK1) is reported as greater than 10000 nM, the IC50 (JAK2) is reported as no less than 10 µM and the IC50 (TYK2) is reported as no less than 10000 nM.
For `CNC(=O)Cn1cc(Nc2ncc(Cl)c(N[C@H](CO)c3cc(F)cc(-c4cnn(C)c4)c3)n2)cn1` [Compound 156], the IC50 (JAK1) was 1000 to 10000 nM, the IC50 (JAK2) was 1 to 10 µM and the IC50 (TYK2) was no less than 10000 nM.
With `CNC(=O)Cn1cc(Nc2ncc(F)c(N[C@H](CO)c3cc(F)cc(-c4cnn(C)c4)c3)n2)cn1` [Compound 157] the IC50 (JAK1) was 1000 to 10000 nM, the IC50 (JAK2) was no less than 10 µM and the IC50 (TYK2) was no less than 10000 nM.
Work on `Cn1cc(Nc2ncc(F)c(N[C@H](CO)c3cc(F)cc(F)c3)n2)cn1` [Compound 158] yielded an IC50 (JAK1) of 1000 to 10000 nM, an IC50 (JAK2) of 1 to 10 µM and an IC50 (TYK2) of 1000 to 10000 nM.
`OCCn1cc(Nc2ncc(F)c(N[C@H](CO)c3cc(F)cc(F)c3)n2)cn1` [Compound 159] gave an IC50 (JAK1) of 100 to 1000 nM, an IC50 (JAK2) of 1 to 10 µM and an IC50 (TYK2) of 100 to 1000 nM.
Compound `NC(=O)Cn1cc(Nc2ncc(F)c(N[C@H](CO)c3cc(F)cc(F)c3)n2)cn1` [Compound 160] has an IC50 (JAK1) of 100 to 1000 nM, an IC50 (JAK2) of 1 to 10 µM and an IC50 (TYK2) of 100 to 1000 nM.
`CNC(=O)Cn1cc(Nc2ncc(F)c(N[C@H](CO)c3cc(F)cc(F)c3)n2)cn1` [Compound 161] showed an IC50 (JAK1) of 100 to 1000 nM, an IC50 (JAK2) of 1 to 10 µM and an IC50 (TYK2) of 100 to 1000 nM.
Compound `Cn1cc(Nc2ncc(Cl)c(N[C@H](CO)c3cccc(N4CCOCC4=O)c3F)n2)cn1` [Compound 162] has an IC50 (JAK1) of 1000 to 10000 nM, an IC50 (JAK2) of no less than 10 µM and an IC50 (TYK2) of no less than 10000 nM.
`Cc1cnc(Nc2cnn(C)c2)nc1N[C@H](CO)c1cc(F)ccc1F` [Compound 163] was tested, and the IC50 (JAK1) was 100 to 1000 nM, the IC50 (JAK2) was 0.1 to 1 µM and the IC50 (TYK2) was 100 to 1000 nM.
`Cc1cnc(Nc2cnn(C)c2)nc1N[C@H](CO)c1cc(F)cc(F)c1` [Compound 164] was tested, and the IC50 (JAK1) was 100 to 1000 nM, the IC50 (JAK2) was 1 to 10 µM and the IC50 (TYK2) was 1000 to 10000 nM.
In the case of `OC[C@@H](Nc1nc(Nc2cnn(CC(F)F)c2)ncc1Cl)c1ccccc1F` [Compound 165], the IC50 (JAK1) is reported as 100 to 1000 nM, the IC50 (JAK2) is reported as 1 to 10 µM and the IC50 (TYK2) is reported as 1000 to 10000 nM.
With `Cc1cnc(Nc2cnn(CC(F)F)c2)nc1N[C@H](CO)c1cc(F)ccc1F` [Compound 166] the IC50 (JAK1) was 100 to 1000 nM, the IC50 (JAK2) was 1 to 10 µM and the IC50 (TYK2) was 1000 to 10000 nM.
